Legend:
HT-1376 = assay: Cell proliferation inhibition, WST-8, four days (Example 3); type: cell-based; settings: Homo sapiens, HT-1376, 96 h, does not express FGFR3
Protocol: (§1) IC50 was calculated using the least-square method.

SW780 = assay: as above; type: cell-based; settings: Homo sapiens, SW780, 96 h, fusion polypeptide expressing
Protocol: as §1

BFTC-905 = assay: as above; type: cell-based; settings: Homo sapiens, BFTC-905, 96 h, wild-type FGFR, no fusion
Protocol: as §1

RT112/84 = assay: as above; type: cell-based; settings: Homo sapiens, RT112/84, 96 h, fusion polypeptide expressing
Protocol: as §1

RT4 = assay: as above; type: cell-based; settings: Homo sapiens, RT-4, 96 h, fusion polypeptide expressing
Protocol: as §1

UM-UC-14 = assay: as above; type: cell-based; settings: Homo sapiens, UMUC14, 96 h, mutated type FGFR, no fusion
Protocol: as §1

[1] = system: colon cancer-derived cell line HCT116; assay: cells; settings: Homo sapiens, HCT-116, 96 h, read-out: HCT116 (CRC) IC50;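 further: proliferation measured with WST-8, IC50 derived by least-squares fitting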

Row | SMILES | IC50 [1] | also measured
1 | CCN(CC)CCCCNc1ncc2cc(-c3cc(OC)cc(OC)c3)c(NC(=O)NC(C)(C)C)nc2n1 [COMPOUND B, PD173074] | – | IC50 (HT-1376): 11 µM; IC50 (SW780): 0.069 µM; IC50 (BFTC-905): 14 µM; IC50 (RT112/84): 0.014 µM; IC50 (RT4): 0.18 µM; IC50 (UM-UC-14): 0.01 µM
2 | Cc1nc2ccc(-n3ncc(C(=O)c4cc5ccc(C6CCN(C)CC6)cc5[nH]4)c3N)cc2[nH]1 [Compound 2] | 2.7 µM | –
3 | Cc1nc2cc(-n3ncc(C(=O)c4cc5ccc(CN6CCOC[C@@H]6C)cc5[nH]4)c3N)ccc2[nH]1 [Compound 3] | 2.9 µM | –
4 | Cc1nc2ccc(-n3ncc(C(=O)c4cc5cc(CN6CCCC(F)C6)ccc5[nH]4)c3N)cc2[nH]1 (stereo not drawn) [Compound 4] | 9.5 µM | –
5 | Cc1nc2ccc(-n3ncc(C(=O)c4cc5cc(CN6C(C)CCC6C)ccc5[nH]4)c3N)cc2[nH]1 (stereo not drawn) [Compound 5] | 11 µM | –
6 | Cc1nc2cc(-n3ncc(C(=O)c4cc5ccc(OCC6(C)COC6)cc5[nH]4)c3N)ccc2[nH]1 [Compound 6] | 12 µM | –
7 | COCCN(CCOC)Cc1ccc2cc(C(=O)c3cnn(-c4ccc5[nH]c(C)nc5c4)c3N)[nH]c2c1 [Compound 8] | 11 µM | –
8 | Cc1nc2cc(-n3ncc(C(=O)c4cc5ccc(OCCN6CCN(C)CC6)cc5[nH]4)c3N)ccc2[nH]1 [Compound 9] | 6.3 µM | –
9 | Cc1nc2ccc(-n3ncc(C(=O)c4cc5ccc(C#N)cc5[nH]4)c3N)cc2[nH]1 [Compound 10] | > 50 µM | –
10 | Cc1nc2ccc(-n3ncc(C(=O)c4cc5cc(C6CCN(C(C)C)CC6)ccc5[nH]4)c3N)cc2[nH]1 [Compound 11] | 5.7 µM | –
11 | Cc1nc2cc(-n3ncc(C(=O)c4cc5ccc(C6CC6)cc5[nH]4)c3N)ccc2[nH]1 [Compound 12] | 7.2 µM | –
12 | Cc1nc2ccc(-n3ncc(C(=O)c4cc5ccc(-c6cccs6)cc5[nH]4)c3N)cc2[nH]1 [Compound 13] | 0.39 µM | –
13 | Cc1nc2cc(-n3ncc(C(=O)c4cc5cc6c(cc5[nH]4)OCCO6)c3N)ccc2[nH]1 [Compound 14] | 3.1 µM | –
14 | Cc1nc2cc(-n3ncc(C(=O)c4cc5ccccc5[nH]4)c3N)c(F)cc2[nH]1 [Compound 15] | 19 µM | –
15 | CCCCc1ccc2cc(C(=O)c3cnn(-c4ccc5nc(C)[nH]c5c4)c3N)[nH]c2c1 [Compound 16] | 17 µM | –
16 | Cc1nc2ccc(-n3ncc(C(=O)c4cc5cc(C6CCN(C7CCCC7)CC6)ccc5[nH]4)c3N)cc2[nH]1 [Compound 17] | 3.8 µM | –
17 | COc1ccc2cc(C(=O)c3cnn(-c4ccc5[nH]c(C)nc5c4)c3N)[nH]c2c1 [Compound 18] | 11 µM | –
18 | C#CCN(C)Cc1ccc2cc(C(=O)c3cnn(-c4ccc5[nH]c(C)nc5c4)c3N)[nH]c2c1 [Compound 19] | 2.5 µM | –
19 | Cc1nc2cc(-n3ncc(C(=O)c4cc5ccc(-c6ccc(N7CCOCC7)nc6)cc5[nH]4)c3N)ccc2[nH]1 [Compound 20] | > 50 µM | –
20 | Cc1nc2cc(-n3ncc(C(=O)c4cc5ccc(OC6COC6)cc5[nH]4)c3N)ccc2[nH]1 [Compound 21] | 21 µM | –
21 | Cc1nc2cc(-n3ncc(C(=O)c4cc5ccc(I)cc5[nH]4)c3N)ccc2[nH]1 [Compound 22] | 1.2 µM | –
22 | CN1CCC(c2ccc3[nH]c(C(=O)c4cnn(-c5ccc6nc(C(F)F)[nH]c6c5)c4N)cc3c2)CC1 [Compound 23] | 10 µM | –
23 | Cc1nc2cc(-n3ncc(C(=O)c4cc5ccc(-c6cnn(C)c6)cc5[nH]4)c3N)ccc2[nH]1 [Compound 24] | > 50 µM | –

Row | SMILES | IC50 [1] | also measured
24 | COCCOc1ccc2[nH]c(C(=O)c3cnn(-c4ccc5[nH]c(C)nc5c4)c3N)cc2c1 [Compound 25] | > 100 µM | –
25 | Cc1nc2cc(-n3ncc(C(=O)c4cc5ccc(-c6ccc(F)cn6)cc5[nH]4)c3N)ccc2[nH]1 [Compound 26] | 11 µM | –
26 | Cc1nc2ccc(-n3ncc(C(=O)c4cc5ccc(CO)cc5[nH]4)c3N)cc2[nH]1 [Compound 27] | 25 µM | –
27 | Cc1nc2ccc(-n3ncc(C(=O)c4cc5cc(-c6cccnc6)ccc5[nH]4)c3N)cc2[nH]1 [Compound 28] | 21 µM | –
28 | Cc1cc(C)c2cc(C(=O)c3cnn(-c4ccc5[nH]c(C)nc5c4)c3N)[nH]c2c1 [Compound 29] | 8.5 µM | –
29 | CSc1ccc2cc(C(=O)c3cnn(-c4ccc5[nH]c(C)nc5c4)c3N)[nH]c2c1 [Compound 30] | 13 µM | –
30 | Cc1nc2cc(-n3ncc(C(=O)c4cc5cc(C6CCN(C(C)C)CC6)c(C(F)(F)F)cc5[nH]4)c3N)ccc2[nH]1 [Compound 31] | 2 µM | –
31 | Cc1nc2ccc(-n3ncc(C(=O)c4cc5cc(C6=CCNCC6)ccc5[nH]4)c3N)cc2[nH]1 [Compound 32] | 8.7 µM | –
32 | Cc1nc2cc(-n3ncc(C(=O)c4cc5cc(C(C)(C)C)ccc5[nH]4)c3N)ccc2[nH]1 [Compound 33] | 4.4 µM | –
33 | Cc1nc2cc(-n3ncc(C(=O)c4cc5ccc(-c6cncc(S(C)(=O)=O)c6)cc5[nH]4)c3N)ccc2[nH]1 [Compound 35] | 7.8 µM | –
34 | Cc1nc2ccc(-n3ncc(C(=O)c4[nH]c5ccccc5c4F)c3N)cc2[nH]1 [Compound 36] | 4.8 µM | –
35 | COc1cc(OC)c2cc(C(=O)c3cnn(-c4ccc5[nH]c(C)nc5c4)c3N)[nH]c2c1 [Compound 37] | 8.9 µM | –
36 | CCCCOc1ccc2[nH]c(C(=O)c3cnn(-c4ccc5[nH]c(C)nc5c4)c3N)cc2c1 [Compound 38] | 6.1 µM | –
37 | Cc1nc2cc(-n3ncc(C(=O)c4cc5cc(OCC6CC6)ccc5[nH]4)c3N)ccc2[nH]1 [Compound 39] | 11 µM | –
38 | Cc1nc2cc(-n3ncc(C(=O)c4cc5ncccc5[nH]4)c3N)ccc2[nH]1 [Compound 40] | 19 µM | –
39 | Cc1ccc(-c2ccc3cc(C(=O)c4cnn(-c5ccc6[nH]c(C)nc6c5)c4N)[nH]c3c2)cn1 [Compound 41] | > 20 µM | –
40 | Cc1nc2cc(-n3ncc(C(=O)c4cc5c(C)cccc5[nH]4)c3N)ccc2[nH]1 [Compound 42] | 15 µM | –
41 | COc1ncccc1-c1ccc2cc(C(=O)c3cnn(-c4ccc5[nH]c(C)nc5c4)c3N)[nH]c2c1 [Compound 43] | > 50 µM | –
42 | Cc1nc2cc(-n3ncc(C(=O)c4cc5ccc(Br)cc5[nH]4)c3N)ccc2[nH]1 [Compound 44] | 10 µM | –
43 | Cc1nc2cc(-n3ncc(C(=O)c4cc5ccc(OCCN6CCOCC6)cc5[nH]4)c3N)ccc2[nH]1 [Compound 45] | 9.4 µM | –
44 | Cc1nc2cc(-n3ncc(C(=O)c4cc5cc(CN6CCN(S(C)(=O)=O)CC6)ccc5[nH]4)c3N)ccc2[nH]1 [Compound 47] | 14 µM | –
45 | Cc1nc2cc(-n3ncc(C(=O)c4cc5ccc(O)cc5[nH]4)c3N)ccc2[nH]1 [Compound 48] | 37 µM | –
46 | Cc1nc2ccc(-n3ncc(C(=O)c4cc5ccc(Cl)cc5[nH]4)c3N)cc2[nH]1 [Compound 50] | 34 µM | –

Row | SMILES | IC50 [1] | also measured
47 | COc1ccccc1-c1ccc2cc(C(=O)c3cnn(-c4ccc5[nH]c(C)nc5c4)c3N)[nH]c2c1 [Compound 51] | 5.1 µM | –
48 | Cc1nc2cc(-n3ncc(C(=O)c4cc5ccc(-c6ccc(C(F)(F)F)cn6)cc5[nH]4)c3N)ccc2[nH]1 [Compound 52] | 10 µM | –
49 | Cc1nc2cc(-n3ncc(C(=O)c4cc5cc6c(cc5[nH]4)OC(F)(F)O6)c3N)ccc2[nH]1 [Compound 53] | > 20 µM | –
50 | Cc1nc2cc(-n3ncc(C(=O)c4cc5cc(C(=O)N6CCC(N7CCCCC7)CC6)ccc5[nH]4)c3N)ccc2[nH]1 [Compound 54] | > 20 µM | –
51 | Cc1nc2ccc(-n3ncc(C(=O)c4cc5cc(C6CCNCC6)c(F)cc5[nH]4)c3N)cc2[nH]1 [Compound 55] | 16 µM | –
52 | Cc1nc2cc(-n3ncc(C(=O)c4cc5c(OC(C)C)cccc5[nH]4)c3N)ccc2[nH]1 [Compound 56] | 19 µM | –
53 | Cc1nc2cc(-n3ncc(C(=O)c4cc5cc(C(=O)N6CCN(CC(F)(F)F)CC6)ccc5[nH]4)c3N)ccc2[nH]1 [Compound 57] | > 20 µM | –
54 | COc1cc2[nH]c(C(=O)c3cnn(-c4ccc5[nH]c(C)nc5c4)c3N)cc2cc1Cl [Compound 58] | 12 µM | –
55 | Cc1nc2cc(-n3ncc(C(=O)c4cc5ccc(OCc6ccccc6)cc5[nH]4)c3N)ccc2[nH]1 [Compound 59] | 3.3 µM | –
56 | Cc1nc2cc(-n3ncc(C(=O)c4cc5cc(C(=O)N6CCCC(F)(F)C6)ccc5[nH]4)c3N)ccc2[nH]1 [Compound 60] | 17 µM | –
57 | Cc1nc2cc(-n3ncc(C(=O)c4cc5cc(SC(F)(F)F)ccc5[nH]4)c3N)ccc2[nH]1 [Compound 61] | 9.1 µM | –
58 | Cc1nc2cc(-n3ncc(C(=O)c4cc5cc(F)c(C(F)(F)F)cc5[nH]4)c3N)ccc2[nH]1 [Compound 62] | 1.7 µM | –
59 | C#Cc1cccc2[nH]c(C(=O)c3cnn(-c4ccc5[nH]c(C)nc5c4)c3N)cc12 [Compound 63] | 13 µM | –
60 | Cc1nc2cc(-n3ncc(C(=O)c4cc5ccc(-c6ccc(F)cc6)cc5[nH]4)c3N)ccc2[nH]1 [Compound 64] | 1.2 µM | –
61 | Cc1nc2cc(-n3ncc(C(=O)c4cc5cc(-n6ccnc6)ccc5[nH]4)c3N)ccc2[nH]1 [Compound 65] | 23 µM | –
62 | Cc1nc2cc(-n3ncc(C(=O)c4cc5ccc(NS(C)(=O)=O)cc5[nH]4)c3N)ccc2[nH]1 [Compound 66] | > 50 µM | –
63 | Cc1nc2cc(-n3ncc(C(=O)c4cc5ccc(OC6CCOCC6)cc5[nH]4)c3N)ccc2[nH]1 [Compound 67] | 7.3 µM | –
64 | Cc1nc2cc(-n3ncc(C(=O)c4cc5cc(C(F)(F)F)ccc5[nH]4)c3N)ccc2[nH]1 [Compound 68] | > 2 µM | –
65 | Cc1nc2cc(-n3ncc(C(=O)c4cc5cc(Oc6ccccc6)ccc5[nH]4)c3N)ccc2[nH]1 [Compound 69] | 4.3 µM | –
66 | Cc1nc2cc(-n3ncc(C(=O)c4cc5cc(F)c(Br)cc5[nH]4)c3N)ccc2[nH]1 [Compound 70] | 9 µM | –
67 | Cc1nc2cc(-n3ncc(C(=O)c4cc5cc(Cc6ccccc6)ccc5[nH]4)c3N)ccc2[nH]1 [Compound 71] | 3.8 µM | –
